Measurements taken from US4010191A, “Acyl derivatives of substituted bis-arylalkylamino compounds” (Deutsche Gold- und Silber-Scheideanstalt vormals Roessler, priority 1969, dated 1977).

What was measured:
[1] = test system: detached tracheas obtained from guinea pigs; test: Broncholytic action on detached tracheas (histamine spasm); design: species or system guinea pig; settings: comparative tests
[2] = test system: heart; test: Heart and circulatory action, comparative tests with papaverine (Langendorff hearts / dogs); design: species or system guinea pig; dog
Procedure: The compounds of the invention were tested in detached guinea pig hearts by the method of Langendorff (Pfluger's Arch. 61 (1895) 291) in respect of the coronary flow, the inotropic action and the heart frequency. Also there were tested in anaesthetized dogs which had been subjected to a thoracostomy.
The significant parameters of the heart and circulatory activity in this case were determined by means of electromagnetic flux measurement and pressure measurement in the interior of the heart ventricle.

COc1ccc(Cc2nccc3cc(OC)c(OC)cc23)cc1OC [papaverine]
duration of action compared to the compounds of the invention [1]: substantially shorter duration | inotropy compared with the compounds of the invention [2]: smaller inotropy | duration of action compared with the compounds of the invention ([2]; heart and circulatory action): substantially shorter duration of action
